Results taken from patent US20260070899A1, “N-(2-(4-CYANOTHIAZOLIDIN-3-YL)-2-OXOETHYL)-QUINOLINE-4-CARBOXAMIDES” (AstraZeneca AB, priority 2022, published 2026).
In brackets after ≈: the same amount, converted by molar mass.

How the values were obtained:
[1] = Metabolic stability in human liver microsomes (HLM); format: in vitro ADME; details: n = 1 or average (n = 2-3)
Experimental: Metabolic stability in HLM was measured as described in J Comput Aided Mol Des 2015, 29, 795.

[2] = system: Rat Hepatocytes (rHep); assay: Metabolic stability in rat hepatocytes (rHep); format: in vitro ADME; details: n = 1 or geometric mean (n = 2-3)
Experimental: Metabolic stability in rat hepatocytes was measured as described in J Comput Aided Mol Des 2015, 29, 795.

[3] = Kinetic solubility; format: physicochemical; details: kinetic from dmso stock, n = 1 or average (n = 2-4)
Experimental: Kinetic solubility was measured as described in Comput Aided Mol Des 2015, 29, 795.

[4] = target: T1, hFAP (Homo sapiens, UniProt Q12884); assay: biochemical
T1 sequence (Q12884 38-760): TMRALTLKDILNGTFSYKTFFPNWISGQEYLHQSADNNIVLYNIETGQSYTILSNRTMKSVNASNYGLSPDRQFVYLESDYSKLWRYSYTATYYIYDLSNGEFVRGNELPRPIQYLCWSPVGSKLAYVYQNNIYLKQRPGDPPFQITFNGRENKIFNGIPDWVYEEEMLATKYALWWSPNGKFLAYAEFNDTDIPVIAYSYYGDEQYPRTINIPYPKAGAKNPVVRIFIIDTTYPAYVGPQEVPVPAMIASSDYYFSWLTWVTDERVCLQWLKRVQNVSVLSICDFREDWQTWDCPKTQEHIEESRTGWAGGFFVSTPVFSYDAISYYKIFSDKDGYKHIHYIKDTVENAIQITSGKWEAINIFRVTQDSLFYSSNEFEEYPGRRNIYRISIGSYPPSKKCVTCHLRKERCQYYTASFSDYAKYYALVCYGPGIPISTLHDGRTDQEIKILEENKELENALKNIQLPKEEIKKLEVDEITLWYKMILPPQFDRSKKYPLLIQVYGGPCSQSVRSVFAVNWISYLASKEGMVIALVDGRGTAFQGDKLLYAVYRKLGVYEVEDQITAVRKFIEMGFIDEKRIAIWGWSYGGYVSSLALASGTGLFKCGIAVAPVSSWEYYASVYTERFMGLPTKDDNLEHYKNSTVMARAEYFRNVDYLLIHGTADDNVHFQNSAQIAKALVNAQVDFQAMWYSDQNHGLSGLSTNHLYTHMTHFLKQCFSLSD
Experimental: 384 low volume black plates (Greiner #784076) were used. 4 μL, 0.48 nM enzyme solution (100 mM Tris HCl, 100 mM NaCl, 0.05% Chaps, pH 7.4) was added to 40 nL compounds (in DMSO) at 10 CR, 3 fold dilution series from 50 μM FAC. Plates were incubated for 15 min at rt in dark. 4 μL, 40 μM substrate solution (100 mM Tris HCl, 100 mM NaCl, 0.05% Chaps, pH 7.4) was added to each well. Plates were centrifuged at 1000 rpm and incubated for 30 min at rt in dark. The plates were read on a PHERAstar® reader with excitation 340 nm and emission 460 nm. Data were analyzed in Genedata Screener®. IC50 values were determined by plotting % inhibition versus log compound concentration and using a one site dose response model.

[5] = target: T2, hFAP (M39-A757) (Homo sapiens, UniProt Q12884); assay: biochemical
T2 sequence (Q12884 39-757): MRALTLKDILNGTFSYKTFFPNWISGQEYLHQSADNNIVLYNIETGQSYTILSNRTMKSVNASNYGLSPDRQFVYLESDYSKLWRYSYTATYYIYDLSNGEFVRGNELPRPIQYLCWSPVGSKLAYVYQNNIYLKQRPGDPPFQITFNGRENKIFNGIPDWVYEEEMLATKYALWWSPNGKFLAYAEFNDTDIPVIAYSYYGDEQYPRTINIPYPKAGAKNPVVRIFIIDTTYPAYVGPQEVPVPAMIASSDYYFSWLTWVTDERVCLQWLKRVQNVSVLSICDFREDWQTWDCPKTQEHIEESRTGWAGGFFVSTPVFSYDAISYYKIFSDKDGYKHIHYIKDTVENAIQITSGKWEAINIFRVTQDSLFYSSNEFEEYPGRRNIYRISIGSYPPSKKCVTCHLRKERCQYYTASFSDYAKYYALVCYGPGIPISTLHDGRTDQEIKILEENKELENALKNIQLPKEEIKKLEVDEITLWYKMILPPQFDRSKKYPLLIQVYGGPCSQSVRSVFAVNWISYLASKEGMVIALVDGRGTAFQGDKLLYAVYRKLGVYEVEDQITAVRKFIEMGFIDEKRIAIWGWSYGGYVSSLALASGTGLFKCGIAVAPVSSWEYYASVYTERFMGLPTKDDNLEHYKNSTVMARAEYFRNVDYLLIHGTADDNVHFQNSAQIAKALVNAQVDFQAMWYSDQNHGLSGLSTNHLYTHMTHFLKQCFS

[6] = target: T3, Prolyl endopeptidase, Prolyl Oligopeptidase (hPREP) (Homo sapiens, UniProt P48147); assay: biochemical
T3 sequence (P48147 1-710): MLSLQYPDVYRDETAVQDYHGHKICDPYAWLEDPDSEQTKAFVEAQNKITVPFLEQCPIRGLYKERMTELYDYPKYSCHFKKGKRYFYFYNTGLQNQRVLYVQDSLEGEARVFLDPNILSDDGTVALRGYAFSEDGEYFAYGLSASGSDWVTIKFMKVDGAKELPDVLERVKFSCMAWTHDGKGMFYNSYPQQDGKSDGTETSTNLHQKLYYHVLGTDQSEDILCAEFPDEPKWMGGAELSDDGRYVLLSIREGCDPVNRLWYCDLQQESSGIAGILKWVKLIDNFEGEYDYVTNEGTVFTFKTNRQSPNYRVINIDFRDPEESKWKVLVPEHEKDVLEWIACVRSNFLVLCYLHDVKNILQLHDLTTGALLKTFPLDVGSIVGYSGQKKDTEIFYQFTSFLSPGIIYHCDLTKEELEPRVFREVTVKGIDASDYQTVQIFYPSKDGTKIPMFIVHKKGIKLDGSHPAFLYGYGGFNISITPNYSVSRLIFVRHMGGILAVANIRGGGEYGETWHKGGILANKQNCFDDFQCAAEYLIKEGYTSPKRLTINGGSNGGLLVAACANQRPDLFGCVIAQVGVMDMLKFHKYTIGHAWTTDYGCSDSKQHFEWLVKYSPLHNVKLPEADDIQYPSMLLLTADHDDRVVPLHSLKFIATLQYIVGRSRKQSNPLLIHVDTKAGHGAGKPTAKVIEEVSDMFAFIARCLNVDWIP
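Throughout, for Kd: surface plasmon resonance direct binding to hFAP amine-coupled on a sensor chip, rising compound concentrations by single cycle kinetics, Kd from global fit of interaction models.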

SMILES	microsomal CLint [1]	rHeps CLint [2]	solubility [3]	IC50 [4]	Kd [5]	IC50 [6]
N#C[C@@H]1CSCN1C(=O)CNC(=O)c1ccnc2ccc(CF)cc12 [Example 29, (R)—N-(2-(4-cyanothiazolidin-3-yl)-2-oxoethyl)-6-(fluoromethyl)-quinoline-4-carboxamide]	9.8 µL/min/mg	12 μL/min/1E6	> 1000 µM	0.52 nM	1.4 nM	32 nM
Cc1cc(Cc2ccc3nccc(C(=O)NCC(=O)N4CSC[C@H]4C#N)c3c2)n(C)n1 [Example 40, (R)—N-(2-(4-Cyanothiazolidin-3-yl)-2-oxoethyl)-6-((1,3-dimethyl-1H-pyrazol-5-yl)methyl)quinoline-4-carboxamide]	29 µL/min/mg	21 μL/min/1E6	> 1000 µM	0.25 nM	0.13 nM	600 nM
Cc1cc(Cc2ccc3nccc(C(=O)NCC(=O)N4CSC[C@H]4C#N)c3c2)no1 [Example 42, (R)—N-(2-(4-Cyanothiazolidin-3-yl)-2-oxoethyl)-6-((5-methylisoxazol-3-yl)methyl)quinoline-4-carboxamide]	12 µL/min/mg	23 μL/min/1E6	190 µM (≈ 80.1 µg/mL)	0.27 nM	0.2 nM	180 nM
Cc1ccc(C2(c3ccc4nccc(C(=O)NCC(=O)N5CSC[C@H]5C#N)c4c3)CC2)cn1 [Example 43, (R)—N-(2-(4-Cyanothiazolidin-3-yl)-2-oxoethyl)-6-(1-(6-methylpyridin-3-yl)cyclopropyl)quinoline-4-carboxamide]	100 µL/min/mg	78 μL/min/1E6	60 µM (≈ 27.5 µg/mL)	0.094 nM	0.39 nM	370 nM
N#C[C@@H]1CSCN1C(=O)CNC(=O)c1ccnc2ccc(C(F)F)cc12 [Example 71, (R)—N-(2-(4-Cyanothiazolidin-3-yl)-2-oxoethyl)-6-(difluoromethyl)-quinoline-4-carboxamide]	16 µL/min/mg	8.7 μL/min/1E6	> 1000 µM	0.43 nM	0.4 nM	15 nM
COCCCOc1ccc(-c2ccc3nccc(C(=O)NCC(=O)N4CSC[C@H]4C#N)c3c2)cc1 [Example 72, (R)—N-(2-(4-Cyanothiazolidin-3-yl)-2-oxoethyl)-6-(4-(3-methoxy-propoxy)phenyl)quinoline-4-carboxamide]	63 µL/min/mg	18 μL/min/1E6	14 µM (≈ 6.87 µg/mL)	0.2 nM	0.013 nM	540 nM
CCOC1(c2ccc3nccc(C(=O)NCC(=O)N4CSC[C@H]4C#N)c3c2)CC1 [Example 76, (R)—N-(2-(4-Cyanothiazolidin-3-yl)-2-oxoethyl)-6-(1-ethoxycyclopropyl)quinoline-4-carboxamide]	140 µL/min/mg	34 μL/min/1E6	900 µM (≈ 369 µg/mL)	1.3 nM	2 nM	580 nM
N#C[C@@H]1CSCN1C(=O)CNC(=O)c1ccnc2ccc(C3CC3)cc12 [Example 77, (R)—N-(2-(4-Cyanothiazolidin-3-yl)-2-oxoethyl)-6-cyclopropylquinoline-4-carboxamide]	58 µL/min/mg	44 μL/min/1E6	470 µM (≈ 172 µg/mL)	0.59 nM	1.4 nM	38 nM
